Source: patent US10172358B2, “Thiopicolinamide compounds with fungicidal activity” (Dow AgroSciences LLC, priority 2016, dated 2019)
Read-outs that look alike come from different tables or passages of the source.

Experiments:
[1] = test system: Zymoseptoria tritici; assay: Fungicidal activity: leaf blotch of wheat (SEPTTR), disease control on wheat seedlings; type: in vivo, Zymoseptoria tritici on wheat plants (variety Yuma); settings: high volume application, 100 ppm
Protocol: Evaluation of Fungicidal Activity: Leaf Blotch of Wheat (Zymoseptoria Tritici; Bayer Code […]) Technical grades of materials were dissolved in acetone, which were then mixed with nine volumes of water (H2O) containing 110 ppm Triton X-100. The fungicide solutions were applied onto wheat seedlings using an automated booth sprayer to run-off. All sprayed plants were allowed to air dry prior to further handling. All fungicides were evaluated using the aforementioned method for their activity vs. all target diseases, unless stated otherwise. Wheat leaf blotch and brown rust activity were also evaluated using track spray applications, in which case the fungicides were formulated as EC formulations, containing 0.1% Trycol 5941 in the spray solutions. Wheat plants (variety Yuma) were grown from seed in a greenhouse in 50% mineral soil/50% soil-less Metro mix until the first leaf was fully emerged, with 7-10 seedlings per pot. These plants were inoculated with an aqueous spore suspension of Zymoseptoria tritici either prior to or after fungicide treatments. After inoculation the plants were kept in 100% relative humidity (one day in a dark dew chamber followed by two to three days in a lighted dew chamber at 20° C.) to permit spores to germinate and infect the leaf. The plants were then transferred to a greenhouse set at 20° C. for disease to develop. When disease symptoms were fully expressed on the 1st leaves of untreated plants, infection levels were assessed on a scale of 0 to 100 percent disease severity. Percent disease control was calculated using the ratio of disease severity on treated plants relative to untreated plants.

[2] = test system: Puccinia triticina; assay: Fungicidal activity: wheat brown rust (PUCCRT), disease control on wheat seedlings; type: in vivo, Puccinia triticina on wheat plants (variety Yuma); settings: high volume application, 100 ppm
Protocol: Technical grades of materials were dissolved in acetone, which were then mixed with nine volumes of water (H2O) containing 110 ppm Triton X-100. The fungicide solutions were applied onto wheat seedlings using an automated booth sprayer to run-off. All sprayed plants were allowed to air dry prior to further handling. All fungicides were evaluated using the aforementioned method for their activity vs. all target diseases, unless stated otherwise. Wheat leaf blotch and brown rust activity were also evaluated using track spray applications, in which case the fungicides were formulated as EC formulations, containing 0.1% Trycol 5941 in the spray solutions. Evaluation of Fungicidal Activity: Wheat Brown Rust (Puccinia triticina; Synonym: Puccinia recondita f. Sp. Tritici; Bayer Code PUCCRT) Wheat plants (variety Yuma) were grown from seed in a greenhouse in 50% mineral soil/50% soil-less Metro mix until the first leaf was fully emerged, with 7-10 seedlings per pot. These plants were inoculated with an aqueous spore suspension of Puccinia triticina either prior to or after fungicide treatments. After inoculation the plants were kept in a dark dew room at 22° C. with 100% relative humidity overnight to permit spores to germinate and infect the leaf. The plants were then transferred to a greenhouse set at 24° C. for disease to develop. Fungicide formulation, application and disease assessment followed the procedures as described in the Example A. The results of the evalution are shown below in Table 4.

[3] = 24 h, 1 day protectant, read-out: SEPTTR 1DP disease control, HV activity at 100 ppm
[4] = 72 h, 3 day curative, read-out: SEPTTR 3DC disease control, HV activity at 100 ppm
[5] = 24 h, 1 day protectant, read-out: PUCCRT 1DP disease control, HV activity at 100 ppm
[6] = 72 h, 3 day curative, read-out: PUCCRT 3DC disease control, HV activity at 100 ppm

Structure (SMILES) | melting point | pest or weed control at 100 ppm [1, 3] | pest or weed control at 100 ppm [1, 4] | pest or weed control at 100 ppm [2, 5] | pest or weed control at 100 ppm [2, 6]
COc1cc(F)ccc1C(c1ccc(F)cc1OC)[C@H](C)OC(=O)[C@H](C)NC(=S)c1nccc(OC)c1O [Compound 23] | 59 to 75 °C | > 80% | > 80% | > 80% | ≤ 80%
COc1cc(F)ccc1[C@@H](c1ccc(F)cc1)[C@H](C)OC(=O)[C@H](C)NC(=S)c1nccc(OC)c1O [Compound 24] | 54 to 70 °C | > 80% | > 80% | > 80% | ≤ 80%
CC[C@H](OC(=O)[C@H](C)NC(=S)c1nccc(OC)c1O)[C@@H](C)Oc1ccccc1 [Compound 25] | 80 to 86 °C | – | – | ≤ 80% | –
COc1ccnc(C(=S)N[C@@H](C)C(=O)O[C@@H](C)[C@@H](c2ccccc2)c2ccc(F)cc2C)c1O [Compound 26] | 152 to 159 °C | > 80% | > 80% | > 80% | ≤ 80%
COc1ccnc(C(=S)N[C@@H](C)C(=O)O[C@@H](C(C)C)[C@@H](C)Oc2ccccc2)c1O [Compound 27] | 46 to 63 °C | – | ≤ 80% | ≤ 80% | –
COc1ccnc(C(=S)N[C@H](C)C(=O)O[C@H](C)C(c2ccc(F)cc2)c2ccc(F)cc2)c1O [Compound 28] | 53 to 64 °C | – | – | – | –
COc1cc(C)ccc1C(c1ccc(C)cc1OC)[C@H](C)OC(=O)[C@H](C)NC(=S)c1nccc(OC)c1O [Compound 29] | 60 to 72 °C | > 80% | > 80% | > 80% | > 80%
COc1ccnc(C(=S)N[C@@H](C)C(=O)O[C@@H](C)[C@H](Oc2ccccc2)c2ccc(F)cc2Cl)c1O [Compound 30] | 50 to 60 °C | > 80% | > 80% | > 80% | ≤ 80%
COc1ccnc(C(=S)N[C@@H](C)C(=O)O[C@@H](C)[C@@H](c2ccc(F)cc2)c2ccc(F)cc2C)c1O [Compound 31] | 57 to 68 °C | > 80% | > 80% | > 80% | ≤ 80%
COc1ccnc(C(=S)N[C@@H](C)C(=O)O[C@@H](C)C(c2ccc(F)cc2F)c2ccc(F)cc2F)c1O [Compound 32] | 50 to 61 °C | ≤ 80% | > 80% | ≤ 80% | ≤ 80%
COc1ccnc(C(=S)N[C@@H](C)C(=O)O[C@@H](C)[C@H](Oc2cccc(F)c2)C(C)C)c1O [Compound 33] | 132 to 141 °C | > 80% | ≤ 80% | > 80% | > 80%
